According to ChEMBL document CHEMBL1201862, “PubChem BioAssay data set” (2004):
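How tested: cells in 96-well plates exposed to compound for 48 hours at five concentrations. GI50 marks 50% less growth.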 Activity calls are given as the source filed them. Cut-off read from the data, not from the text of the source: active = GI50 up to about 1.1 µM and inactive = higher.

Assays:
Experiment in all cases: NCI anticancer screen, dose series, 48 h
SF-539 = system: SF-539
UACC-257 = system: UACC-257
SW-620 = system: SW-620
IGROV-1 = system: IGROV-1
Malme-3M = system: Malme-3M
CCRF-CEM = system: CCRF-CEM
SN12C = system: SN12C
SK-MEL-28 = system: SK-MEL-28
SNB-75 = system: SNB-75
BT-549 = system: BT-549
SNB-19 = system: SNB-19
K562 = system: K562
HCC 2998 = system: HCC 2998
NCI-H23 = system: NCI-H23
HOP-92 = system: HOP-92
OVCAR-8 = system: OVCAR-8
MCF7 = system: MCF7
MDA-MB-435 = system: MDA-MB-435
NCI-H460 = system: NCI-H460
MDA-N = system: MDA-N
COLO 205 = system: COLO 205
OVCAR-5 = system: OVCAR-5
DU-145 = system: DU-145
HCT-116 = system: HCT-116
A498 = system: A498
SF-295 = system: SF-295
NCI/ADR-RES = system: NCI/ADR-RES
RXF 393 = system: RXF 393
HL-60 = system: HL-60
SK-MEL-5 = system: SK-MEL-5
EKVX = system: EKVX
UO-31 = system: UO-31
M14 = system: M14
OVCAR-4 = system: OVCAR-4
PC-3 = system: PC-3
A549 = system: A549
CAKI-1 = system: CAKI-1
MOLT-4 = system: MOLT-4
TK-10 = system: TK-10
U-251 = system: U-251
SF-268 = system: SF-268
HOP-62 = system: HOP-62
HT-29 = system: HT-29
LOX IMVI = system: LOX IMVI
UACC-62 = system: UACC-62
OVCAR-3 = system: OVCAR-3
SR = system: SR
Hs-578T = system: Hs-578T
T47D = system: T47D
HCT-15 = system: HCT-15
MDA-MB-231 = system: MDA-MB-231
SK-MEL-2 = system: SK-MEL-2
SK-OV-3 = system: SK-OV-3
NCI-H226 = system: NCI-H226
RPMI-8226 = system: RPMI-8226
786-0 = system: 786-0
NCI-H522 = system: NCI-H522
KM12 = system: KM12
ACHN = system: ACHN

Compound: CO/N=C1/c2sccc2[C@H](NC(=O)CNC(=O)OC(C)(C)C)[C@@H]1O
- GI50 (SF-539): > 100 µM (inactive)
- GI50 (UACC-257): > 100 µM (inactive)
- GI50 (SW-620): > 100 µM (inactive)
- GI50 (IGROV-1): > 100 µM (inactive)
- GI50 (Malme-3M): > 100 µM (inactive)
- GI50 (CCRF-CEM): > 100 µM (inactive)
- GI50 (SN12C): > 100 µM (inactive)
- GI50 (SK-MEL-28): > 100 µM (inactive)
- GI50 (SNB-75): > 100 µM (inactive)
- GI50 (BT-549): > 100 µM (inactive)
- GI50 (SNB-19): > 100 µM (inactive)
- GI50 (K562): > 100 µM (inactive)
- GI50 (HCC 2998): > 100 µM (inactive)
- GI50 (NCI-H23): > 100 µM (inactive)
- GI50 (HOP-92): > 100 µM (inactive)
- GI50 (OVCAR-8): > 100 µM (inactive)
- GI50 (MCF7): > 100 µM (inactive)
- GI50 (MDA-MB-435): > 100 µM (inactive)
- GI50 (NCI-H460): > 100 µM (inactive)
- GI50 (MDA-N): > 100 µM (inactive)
- GI50 (COLO 205): > 100 µM (inactive)
- GI50 (OVCAR-5): > 100 µM (inactive)
- GI50 (DU-145): > 100 µM (inactive)
- GI50 (HCT-116): > 100 µM (inactive)
- GI50 (A498): > 100 µM (inactive)
- GI50 (SF-295): > 100 µM (inactive)
- GI50 (NCI/ADR-RES): > 100 µM (inactive)
- GI50 (RXF 393): > 100 µM (inactive)
- GI50 (HL-60): > 100 µM (inactive)
- GI50 (SK-MEL-5): > 100 µM (inactive)
- GI50 (EKVX): > 100 µM (inactive)
- GI50 (UO-31): > 100 µM (inactive)
- GI50 (M14): > 100 µM (inactive)
- GI50 (OVCAR-4): > 100 µM (inactive)
- GI50 (PC-3): > 100 µM (inactive)
- GI50 (A549): > 100 µM (inactive)
- GI50 (CAKI-1): > 100 µM (inactive)
- GI50 (MOLT-4): > 100 µM (inactive)
- GI50 (TK-10): > 100 µM (inactive)
- GI50 (U-251): > 100 µM (inactive)
- GI50 (SF-268): > 100 µM (inactive)
- GI50 (HOP-62): > 100 µM (inactive)
- GI50 (HT-29): > 100 µM (inactive)
- GI50 (LOX IMVI): > 100 µM (inactive)
- GI50 (UACC-62): > 100 µM (inactive)
- GI50 (OVCAR-3): > 100 µM (inactive)
- GI50 (SR): > 100 µM (inactive)
- GI50 (Hs-578T): > 100 µM (inactive)
- GI50 (T47D): > 100 µM (inactive)
- GI50 (HCT-15): > 100 µM
- GI50 (MDA-MB-231): > 100 µM (inactive)
- GI50 (SK-MEL-2): > 100 µM (inactive)
- GI50 (SK-OV-3): > 100 µM (inactive)
- GI50 (NCI-H226): > 100 µM (inactive)

Compound: O=c1cc(/C=C/c2ccc(O)c(O)c2)cc(/C=C/c2ccc(O)c(O)c2)o1
- GI50 (SF-539): 8.15 µM (inactive)
- GI50 (UACC-257): 12.5 µM (inactive)
- GI50 (SW-620): 13.6 µM (inactive)
- GI50 (IGROV-1): 12.9 µM (inactive)
- GI50 (Malme-3M): 5.82 µM (inactive)
- GI50 (CCRF-CEM): 7.66 µM (inactive)
- GI50 (SN12C): 9.71 µM (inactive)
- GI50 (SK-MEL-28): 16.4 µM (inactive)
- GI50 (SNB-75): 10.5 µM (inactive)
- GI50 (RPMI-8226): 5.02 µM (inactive)
- GI50 (BT-549): 13.9 µM (inactive)
- GI50 (SNB-19): 8.28 µM (inactive)
- GI50 (K562): 2.9 µM (inactive)
- GI50 (HCC 2998): 6.68 µM (inactive)
- GI50 (NCI-H23): 14.9 µM (inactive)
- GI50 (HOP-92): 15.2 µM (inactive)
- GI50 (OVCAR-8): 18.6 µM (inactive)
- GI50 (MCF7): 4.05 µM (inactive)
- GI50 (MDA-MB-435): 12.9 µM (inactive)
- GI50 (NCI-H460): 14.3 µM (inactive)
- GI50 (MDA-N): 11.6 µM (inactive)
- GI50 (COLO 205): 12.1 µM (inactive)
- GI50 (OVCAR-5): 12.2 µM (inactive)
- GI50 (786-0): 14.3 µM (inactive)
- GI50 (DU-145): 9.23 µM (inactive)
- GI50 (NCI-H522): 1.68 µM (inactive)
- GI50 (HCT-116): 8.17 µM (inactive)
- GI50 (KM12): 8.43 µM (inactive)
- GI50 (A498): 11 µM (inactive)
- GI50 (SF-295): 9.44 µM (inactive)
- GI50 (NCI/ADR-RES): 32.9 µM (inactive)
- GI50 (RXF 393): 6.71 µM (inactive)
- GI50 (SK-MEL-5): 8.59 µM (inactive)
- GI50 (EKVX): 8.11 µM (inactive)
- GI50 (UO-31): 4.22 µM (inactive)
- GI50 (M14): 10.5 µM (inactive)
- GI50 (OVCAR-4): 14.3 µM (inactive)
- GI50 (PC-3): 9.16 µM (inactive)
- GI50 (A549): 12.8 µM (inactive)
- GI50 (CAKI-1): 10.9 µM (inactive)
- GI50 (ACHN): 5.85 µM (inactive)
- GI50 (MOLT-4): 1.92 µM (inactive)
- GI50 (TK-10): 17.5 µM (inactive)
- GI50 (U-251): 6.95 µM (inactive)
- GI50 (SF-268): 5.86 µM (inactive)
- GI50 (HOP-62): 10.5 µM (inactive)
- GI50 (HT-29): 11.4 µM (inactive)
- GI50 (LOX IMVI): 15.7 µM (inactive)
- GI50 (UACC-62): 8.39 µM (inactive)
- GI50 (OVCAR-3): 7.71 µM (inactive)
- GI50 (SR): 1.24 µM (inactive)
- GI50 (Hs-578T): 8.05 µM (inactive)
- GI50 (T47D): 8.79 µM (inactive)
- GI50 (HCT-15): 10.4 µM
- GI50 (MDA-MB-231): 11.5 µM (inactive)
- GI50 (SK-MEL-2): 11.6 µM (inactive)
- GI50 (SK-OV-3): 11.5 µM (inactive)
- GI50 (NCI-H226): 14.9 µM (inactive)

Compound: COc1ccc(NC(=S)NNC(=O)c2cc(-c3ccccc3)nc3ccccc23)cc1
- GI50 (SF-539): 13.2 µM (inactive)
- GI50 (UACC-257): 18.4 µM (inactive)
- GI50 (SW-620): 14.6 µM (inactive)
- GI50 (IGROV-1): 26.5 µM (inactive)
- GI50 (Malme-3M): 11.2 µM (inactive)
- GI50 (CCRF-CEM): 12.9 µM (inactive)
- GI50 (SN12C): 18.6 µM (inactive)
- GI50 (SK-MEL-28): 10.4 µM (inactive)
- GI50 (SNB-75): 16.1 µM (inactive)
- GI50 (RPMI-8226): 11.4 µM (inactive)
- GI50 (BT-549): 14.1 µM (inactive)
- GI50 (SNB-19): 23.9 µM (inactive)
- GI50 (K562): 15.7 µM (inactive)
- GI50 (HCC 2998): 12.1 µM (inactive)
- GI50 (NCI-H23): 13.6 µM (inactive)
- GI50 (HOP-92): 10.6 µM (inactive)
- GI50 (OVCAR-8): 17.2 µM (inactive)
- GI50 (MCF7): 0.568 µM (active)
- GI50 (MDA-MB-435): 2.95 µM (inactive)
- GI50 (NCI-H460): 16.1 µM (inactive)
- GI50 (MDA-N): 4.03 µM (inactive)
- GI50 (COLO 205): 31.8 µM (inactive)
- GI50 (OVCAR-5): 20.8 µM (inactive)
- GI50 (786-0): 17.9 µM (inactive)
- GI50 (DU-145): 18.1 µM (inactive)
- GI50 (NCI-H522): 17.1 µM (inactive)
- GI50 (HCT-116): 12.4 µM (inactive)
- GI50 (KM12): 16.1 µM (inactive)
- GI50 (A498): 14.3 µM (inactive)
- GI50 (SF-295): 3.5 µM (inactive)
- GI50 (NCI/ADR-RES): 12.3 µM (inactive)
- GI50 (RXF 393): 13.9 µM (inactive)
- GI50 (SK-MEL-5): 11.4 µM (inactive)
- GI50 (UO-31): 11.4 µM (inactive)
- GI50 (M14): 15.4 µM (inactive)
- GI50 (OVCAR-4): 19.3 µM (inactive)
- GI50 (PC-3): 19.2 µM (inactive)
- GI50 (A549): 17.7 µM (inactive)
- GI50 (CAKI-1): 23.4 µM (inactive)
- GI50 (ACHN): 22.1 µM (inactive)
- GI50 (MOLT-4): 19.7 µM (inactive)
- GI50 (TK-10): 15.8 µM (inactive)
- GI50 (U-251): 15.5 µM (inactive)
- GI50 (SF-268): 26.1 µM (inactive)
- GI50 (HOP-62): 15.1 µM (inactive)
- GI50 (HT-29): 19.9 µM (inactive)
- GI50 (UACC-62): 11.5 µM (inactive)
- GI50 (OVCAR-3): 12 µM (inactive)
- GI50 (SR): 2.81 µM (inactive)
- GI50 (Hs-578T): 24 µM (inactive)
- GI50 (T47D): 14.9 µM (inactive)
- GI50 (HCT-15): 12.3 µM
- GI50 (MDA-MB-231): 22.5 µM (inactive)
- GI50 (SK-MEL-2): 16 µM (inactive)
- GI50 (SK-OV-3): 0.479 µM (active)
- GI50 (NCI-H226): 20.1 µM (inactive)
